molecular target: T1, Streptococcus pneumonia UPPS (Streptococcus pneumoniae serotype 4, UniProt Q97SR4); assay: Determination of binding to UPPS (inorganic phosphate release, Biomol Green); assay type: biochemical; details: FPP 3 μM, IPP 16 μM; 20 minutes preincubation with compound
T1 construct: His-tag (N)
T1 sequence (Q97SR4 1-252): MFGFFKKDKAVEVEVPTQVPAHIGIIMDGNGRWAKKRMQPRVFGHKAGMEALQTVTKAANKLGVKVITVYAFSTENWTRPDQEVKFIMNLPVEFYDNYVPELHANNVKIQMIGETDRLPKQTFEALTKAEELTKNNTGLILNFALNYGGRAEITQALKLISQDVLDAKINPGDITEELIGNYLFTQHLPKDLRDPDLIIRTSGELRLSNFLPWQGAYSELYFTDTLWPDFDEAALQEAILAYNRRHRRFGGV
Experimental: The ability of several of the compounds described herein to bind to UPPS was also tested as follows.
Streptococcus pneumonia UPPS was cloned into pET-15b, expressed and purified as an N-terminal His-tag fusion using affinity chromatography. The working stock of UPPS was prepared by mixing the purified enzyme with liposome made from E. coli total lipids extract (Avanti Polar Lipis, Inc., Alabaster, Ala.). The substrates FPP and IPP and inorganic pyrophosphatase were purchased from Sigma. Biomol Green reagent was from Biomol International (Plymouth Meeting, Pa.). All other chemicals were from Sigma at the highest grade.
For testing a compound, UPPS was first incubated with the compound at desired concentrations for 20 minutes in the UPPS reaction buffer that contained 100 mM Tris-HCl, pH 7.3, 50 mM KCl, 1 mM MgCl2, 0.01% Triton X-100, and 20 μg/mL BSA. The reaction was then initiated by the addition of a mixture of FPP, IPP, and E. coli […] made in the same UPPS reaction buffer. The final concentrations for FPP and IPP were 3 μM and 16 μM, respectively. The inorganic phosphate generated in the reactions was then quantified with Biomol Green reagent, which was then used to determine the rate of the reaction and the inhibitory activity of the compound.
For example, the results of the binding assay for several compounds are shown the table below: […]

SMILES | IC50 [µM]
O=C(Nc1ccc(-c2ccccc2)cc1)C1=C(O)C(c2ccccc2)NC1=O (centres unmarked) [compound 14] | 0.01 to 10
O=C(Nc1ccc(C2CCCCC2)cc1)C1=C(O)CC(C2CCCCC2)NC1=O (centres unmarked) [compound 185] | 0.01 to 10
O=C(Nc1ccc(N2CCCCC2)cc1)C1=C(O)C(CCc2ccccc2)NC1=O (centres unmarked) [compound 143] | 0.01 to 10
O=C(NCCSCc1c(Cl)cccc1Cl)C1=C(O)C(Cc2ccccc2)NC1=O (centres unmarked) [compound 54] | 10 to 50
N#Cc1ccccc1Oc1cccc(NC(=O)C2=C(O)C(c3ccccc3)NC2=O)c1 (centres unmarked) [compound 8] | 0.01 to 10
O=C(Nc1ccc(N2CCCCC2)cc1)C1=C(O)C(CCc2ccccc2)NC1=O (centres unmarked) [compound 97] | 0.01 to 10
O=C(Nc1ccc(C(F)(F)F)cc1)C1=C(O)CC(c2ccccc2)NC1=O (centres unmarked) [compound 167] | 0.01 to 10
O=C(Nc1ccc(C2CCCCC2)cc1)C1=C(O)CC(c2ccccc2)NC1=O (centres unmarked) [compound 164] | 0.01 to 10
O=C(Nc1ccc(C2CCCCC2)cc1)C1=C(O)C(c2ccccc2)NC1=O (centres unmarked) [compound 56] | 0.01 to 10
Cc1ccc2nc(-c3ccc(NC(=O)C4=C(O)C(Cc5ccccc5)NC4=O)cc3)sc2c1 (centres unmarked) [compound 4] | 10 to 50
CC(C)CC1CC(O)=C(C(=O)Nc2ccc(-n3cccn3)cc2)C(=O)N1 (centres unmarked) [compound 192] | 0.01 to 10
CCC1C(O)=C(C(=O)Nc2ccc(C3CCCCC3)cc2)C(=O)N1C (centres unmarked) [compound 15] | 10 to 50
O=C(Nc1cccc(Oc2ccccc2)c1)C1=C(O)C(CCc2ccccc2)NC1=O (centres unmarked) [compound 80] | 0.01 to 10
O=C(Nc1ccc(N2CCCCC2)cc1)C1=C(O)C(c2ccccc2)NC1=O (centres unmarked) [compound 7] | 0.01 to 10
CCN1CCN(c2ccc(NC(=O)C3=C(O)C(CC(C)C)NC3=O)cc2)CC1 (centres unmarked) [compound 148] | 0.01 to 10
O=C(NC1CCCCC1)C1=C(O)C(Cc2ccccc2)NC1=O (centres unmarked) [compound 23] | > 50

SMILES | IC50 [µM]
COc1ccc(-c2nc(NC(=O)C3=C(O)CC(Cc4ccccc4)NC3=O)nn2-c2ccc(CO)cc2)cc1 (centres unmarked) [compound 177] | 0.01 to 10
O=C1NCC(CC2CCCCC2)C(O)=C1C(=O)Nc1ccc(-n2ccnc2)cc1 (centres unmarked) [compound 221] | 0.01 to 10
CC1CC(O)=C(C(=O)Nc2ccc(Oc3ccccc3)cc2)C(=O)N1 (centres unmarked) [compound 223] | > 50
O=C(Nc1ccc(Nc2ccccc2)cc1)C1=C(O)C(CC2CCCCC2)NC1=O (centres unmarked) [compound 103] | 0.01 to 10
O=C(Nc1ccc(Oc2ncc(C(F)(F)F)cc2Cl)cc1)C1=C(O)C(Cc2ccccc2)NC1=O (centres unmarked) [compound 9] | 0.01 to 10
CC(C)CC1CC(O)=C(C(=O)Nc2ccc(OC(F)(F)F)cc2)C(=O)N1 (centres unmarked) [compound 183] | 0.01 to 10
O=C(Nc1ccc(CO)cc1)C1=C(O)C(Cc2ccccc2)NC1=O (centres unmarked) [compound 22] | > 50
O=C(Nc1ccc(S(=O)(=O)c2ccccc2)cc1)C1=C(O)CC(C2CCCCC2)NC1=O (centres unmarked) [compound 206] | 0.01 to 10
O=C(Nc1ccc(Oc2ccccc2)cc1)C1=C(O)C(CCc2ccccc2)NC1=O (centres unmarked) [compound 86] | 0.01 to 10
O=C(Nc1ccc(-n2cccn2)cc1)C1=C(O)CC(c2ccccc2)NC1=O (centres unmarked) [compound 181] | 0.01 to 10
CC(C)CC1NC(=O)C(C(=O)Nc2cccc(Oc3ccccc3)c2)=C1O (centres unmarked) [compound 70] | 0.01 to 10
CC(C)CC1NC(=O)C(C(=O)Nc2ccc(Nc3ccccc3)cc2)=C1O (centres unmarked) [compound 104] | 0.01 to 10
O=C(Nc1ccc(-c2ccccc2)cc1)C1=C(O)C(c2ccccc2)NC1=O (centres unmarked) [compound 16] | 0.01 to 10
CC(C)CC1CC(O)=C(C(=O)Nc2ccc(S(=O)(=O)c3ccccc3)cc2)C(=O)N1 (centres unmarked) [compound 202] | 10 to 50
CC(C)CC1NC(=O)C(C(=O)NCc2ccc(-c3cccs3)cc2)=C1O (centres unmarked) [compound 36] | 0.01 to 10
O=C(Nc1ccc(N2CCOCC2)cc1)C1=C(O)C(c2ccccc2)NC1=O (centres unmarked) [compound 13] | 10 to 50

The remaining lines, values ahead:

IC50 [µM] | SMILES
0.01 to 10 | O=C(Nc1ccc(Cc2ccccc2)cc1)C1=C(O)C(Cc2ccccc2)NC1=O (centres unmarked) [compound 10]
0.01 to 10 | CC(C)CC1NC(=O)C(C(=O)Nc2ccc(Oc3nc4ccccc4s3)cc2)=C1O (centres unmarked) [compound 126]
0.01 to 10 | O=C(Nc1ccc(C2CCCCC2)cc1)C1=C(O)C(c2ccccc2)NC1=O (centres unmarked) [compound 11]
0.01 to 10 | O=C(Nc1cccc(Oc2ccccc2)c1)C1=C(O)C(CC2CCCCC2)NC1=O (centres unmarked) [compound 49]
0.01 to 10 | O=C(Nc1ccc(C2CCCCC2)cc1)C1=C(O)C(c2ccccc2)NC1=O (centres unmarked) [compound 116]
0.01 to 10 | O=C(Nc1ccc(C2CCCCC2)cc1)C1=C(O)C(Cc2ccccc2)NC1=O (centres unmarked) [compound 5]
0.01 to 10 | O=C(Nc1ccc(-n2cccn2)cc1)C1=C(O)CC(C2CCCCC2)NC1=O (centres unmarked) [compound 198]
0.01 to 10 | O=C(Nc1ccc(N2CCCCC2)cc1)C1=C(O)CC(Cc2ccccc2)NC1=O (centres unmarked) [compound 174]
0.01 to 10 | CC(C)CC1NC(=O)C(C(=O)Nc2ccc(Oc3ccccc3)cc2)=C1O (centres unmarked) [compound 123]
0.01 to 10 | COc1ccc(NC(=O)C2=C(O)CC(c3ccccc3)NC2=O)cc1 (centres unmarked) [compound 170]
0.01 to 10 | CCCCCCOc1ccc(NC(=O)C2=C(O)C(CCc3ccccc3)NC2=O)cc1 (centres unmarked) [compound 77]
0.01 to 10 | O=C(Nc1ccc(Oc2ccccc2)cc1)C1=C(O)CC(C2CCCCC2)NC1=O (centres unmarked) [compound 189]
0.01 to 10 | CCCCCCOc1ccc(NC(=O)C2=C(O)C(CC(C)C)NC2=O)cc1 (centres unmarked) [compound 52]
0.01 to 10 | Cc1ccc2nc(-c3ccc(NC(=O)C4=C(O)C(c5ccccc5)NC4=O)cc3)sc2c1 (centres unmarked) [compound 6]
0.01 to 10 | O=C(Nc1ccc(OC2CCCCC2)cc1)C1=C(O)CC(c2ccccc2)NC1=O (centres unmarked) [compound 166]
0.01 to 10 | O=C(Nc1ccc(-c2ccccc2)cc1)C1=C(O)CC(Cc2ccccc2)NC1=O (centres unmarked) [compound 187]
0.01 to 10 | O=C(Nc1ccc(N2CCCCC2)cc1)C1=C(O)CC(c2ccccc2)NC1=O (centres unmarked) [compound 168]
0.01 to 10 | COc1cccc(NC(=O)C2=C(O)C(c3ccccc3)NC2=O)c1 (centres unmarked) [compound 12]
0.01 to 10 | CC(C)CC1NC(=O)C(C(=O)Nc2ccc(-c3ccccc3)cc2)=C1O (centres unmarked) [compound 81]
0.01 to 10 | O=C(Nc1ccc(C2CCCCC2)cc1)C1=C(O)CN(Cc2ccccc2)C1=O [compound 19]
0.01 to 10 | O=C(Nc1ccc(-c2ccccc2)cc1)C1=C(O)C(Cc2c[nH]cn2)NC1=O (centres unmarked) [compound 113]
0.01 to 10 | O=C(Nc1ccc(-c2ccccc2)cc1)C1=C(O)CC(c2ccccc2)NC1=O (centres unmarked) [compound 169]
0.01 to 10 | CC(C)CC1CC(O)=C(C(=O)Nc2ccc(C3CCCCC3)cc2)C(=O)N1 (centres unmarked) [compound 182]
0.01 to 10 | N#Cc1ccc(-c2ccc(NC(=O)C3=C(O)C(Cc4ccccc4)NC3=O)cc2)cc1 (centres unmarked) [compound 66]
